Test results published in patent publication US5475026A, “Agent for treating hepatic diseases” (Toray Industries, Inc., priority 1991, dated 1995).
Where a name gives a salt, the structure may show the parent alone.

Columns and labels:
[1] = hepatic disorder induced by D-galactosamine in SD rats (Example 2); format: in vivo, SD male rats; conditions: oral
Procedure: Using 7 week-old SD male rats, the effectiveness of beraprost by oral administration against the hepatic disorder induced by D-galactosamine was tested. As the test compound, the sodium salt of beraprost was used. The test compound was administered in a dose of 0.3 mg/kg per each time at one hour before and 6 hours after the administration of D-galactosamine. D-galactosamine was subcutaneously administered in a dose of 1 g/kg. Forty eight hours after the administration of D-galactosamine, the GOT and glutamic acid-pyruvic acid transaminase (hereinafter referred to as "GPT") levels in serum, and the content of triglyceride in the livers were measured.
As a control group, one group was treated in the same manner as described above except that sodium salt of beraprost was not administered.

[2] = increase in lipid peroxide level in the blood induced by carbon tetrachloride in SD rats (Example 3); format: in vivo, SD male rats; conditions: for Lipid Peroxides in serum / GPT level in serum / GOT level in serum: dose not given; for Lipid Peroxides in serum: control 7.10 ± 1.73, non-treated 3.40 ± 0.21; for GPT level in serum: control 3709 ± 406, non-treated 21 ± 2; for GOT level in serum: control 14689 ± 1577, non-treated 95 ± 5
Procedure: Using 7 week-old SD male rats, each group consisting of 6 rats, the effectiveness of beraprost by oral administration against the increase in the lipid peroxide level in the blood induced by carbon tetrachloride was tested. The sodium salt of beraprost was used as the test compound. 12.5% carbon tetrachloride solution in olive oil was intraperitoneally administered in a dose of 2 ml/kg to the rats which had been fasted for 24 hours. After the administration of the carbon tetrachloride solution, the rats were fasted for another 24 hours and then the levels of lipid peroxide, GOT and GPT in serum were measured. The test compound was administered one hour before (Test Group 1) or 6 hours after (Test Group 2) the administration of the carbon tetrachloride solution. As a control group, one group was treated in the same manner as described above except that the sodium salt of beraprost was not administered.

[3] = Acute Toxicity Test (Example 5); parameters: species or system rats; conditions: rat, in vivo, 14 days, parentheses: 95% reliable limit, Litchfield-Wilcoxon Method
Procedure: (§1) Acute toxicity test was carried out using rats.
(§2) *Litchfield-Wilcoxon Method (see J. Pharmacol. Expl. Therap. Vol. 96, p.
(§3) The numbers in parentheses indicate 95% reliable limit.

rats = assay: Acute Toxicity Test (Example 5); conditions: rat, in vivo
Procedure: as §1, §2, §3

[4] = hepatic disorder induced by carbon tetrachloride in SD rats, serum GOT (Example 1); format: in vivo, Sprague-Dawley male rats; conditions: 0.3 mg/kg; for GOT level in serum: 24 h after
Procedure: Using 7 week-old Sprague-Dawley (hereinafter referred to as "SD") male rats, the effectiveness of beraprost against hepatic disorder induced by carbon tetrachloride was tested employing two administration routes, that is, oral and intraperitoneal administrations. Each group consisted of 6 rats. The test compound was the sodium salt of beraprost. The test compound was administered to the rats. which had been fasted for 24 hours, One hour after beraprost administration, 12.5% carbon tetrachloride solution in olive oil was administered in a dose of 2 ml/kg. The carbon tetrachloride solution was intraperitoneally administered to the rats to which the test compound was orally administered. The carbon tetrachloride solution was orally administered to the rats to which the test compound was intraperitoneally administered. After the administration of the carbon tetrachloride solution, the rats were fasted for 24 hours, and the glutamic acid-[…] transaminase (hereinafter referred to as "GOT") level in serum was measured. As a control group, one group was treated in the same manner as described above except that the sodium salt of beraprost was not administered. The results are shown in […]

[5] = disorder caused by liver ischemia-recirculation in SD rats (Example 4); format: in vivo, SD male rats; conditions: oral, 30 minutes before ischemia; for GPT level in serum: two hours after recirculation, control 624
Procedure: Using 8-10 week-old SD male rats, the effectiveness of beraprost by oral administration against the disorder caused by liver ischemia-recirculationwas tested. The sodium salt of beraprost was used as the test compound. The test compound was administered 30 minutes before the induction of liver ischemia. Liver ischemia was induced by ventrotomy under anesthesia and closing the hepatic artery in the outer left leaf and the portal vein with clips. One hour after the clipping, the clips were removed to reopen the vessels. Two hours after recirculation, the GPT level in serum was measured to evaluate the degree of disorder.
As a control group, one group was treated in the same manner as described above except that distilled water was administered in place of sodium salt of beraprost.

[6] = 0.3 mg/kg twice, vs control group
[7] = oral, one hour before or 6 hours after carbon tetrachloride
[8] = Test Group 1: oral, one hour before carbon tetrachloride, 24 h after
[9] = Test Group 2: oral, 6 hours after carbon tetrachloride, measured 24 h after carbon tetrachloride

CC#CCC(C)[C@H](O)/C=C/[C@@H]1[C@H]2c3cccc(CCCC(=O)O)c3O[C@H]2C[C@H]1O (relative stereo) [beraprost, (±)-(1R*,2R*, 3aS*,8bS*)-2,3,3a,8b-tetrahydro-2-hydroxy-1-[(E)-(3S*)-3-hydroxy-4methyl-1-ocetene-6-inyl]-1H-cyclopenta[b]benzofuran-5-butyric acid]
decrease in amount of triglycerides in the liver (in words) [1, 6]: significant decreases | decrease in serum GOT (in words) [1, 6]: significant decreases | decrease in serum GPT (in words) [1, 6]: significant decreases | decrease in GOT (in words) [2, 7]: significant decrease | decrease in GPT (in words) [2, 7]: significant decrease | decrease in lipid peroxide level in the blood (in words) [2, 7]: significant decrease | LD50 at 336 h ([3]; iv, female): 13 mg/kg | LD50 at 336 h ([3]; iv, male): 18 mg/kg | LD50 at 336 h ([3]; po, female): 12 mg/kg | LD50 at 336 h ([3]; po, male): 15 mg/kg | LD50 at 336 h ([3]; sc, subcutaneous, female): 7 mg/kg | LD50 at 336 h ([3]; sc, subcutaneous, male): 13 mg/kg | pathological symptoms (rats): slight to medium congestion in lung, slight to medium bleeding in stomach glands and slight small intestine catarrh | side effects (rats): side effects are observed only at very high dose

CC#CCC(C)[C@H](O)/C=C/[C@@H]1[C@H]2c3cccc(CCCC(=O)O)c3O[C@H]2C[C@H]1O (relative stereo) [sodium salt of beraprost]
GOT level in serum ([4]; intraperitoneal, one hour before carbon tetrachloride (oral), control 11943 ± 1216): 1889 ± 506 unit/l | decrease in GOT (in words) ([4]; oral and intraperitoneal, vs control): significant decrease in GOT was observed | GOT level in serum ([4]; oral, one hour before carbon tetrachloride (intraperitoneal), control 15647 ± 1588): 3820 ± 642 unit/l | Triglyceride content in the liver ([1]; 0.3 mg/kg one hour before and 6 hours after D-galactosamine, 48 h, control 42.4 ± 6.0, non-treated 14.1 ± 0.6): 12.4 ± 0.7 mg/g tissue | GPT level in serum ([1]; 0.3 mg/kg one hour before and 6 hours after D-galactosamine, 48 h, control 2552 ± 375, non-treated 79 ± 5): 1356 ± 187 unit/l | GOT level in serum ([1]; 0.3 mg/kg one hour before and 6 hours after D-galactosamine, 48 h, control 5641 ± 858, non-treated 154 ± 7): 3506 ± 377 unit/l | Lipid Peroxides in serum [2, 8]: 2.44 ± 0.34 µM | GPT level in serum [2, 8]: 1285 ± 344 unit/l | GOT level in serum [2, 8]: 4428 ± 1649 unit/l | Lipid Peroxides in serum [2, 9]: 2.82 ± 0.52 µM | GPT level in serum [2, 9]: 1713 ± 258 unit/l | GOT level in serum [2, 9]: 7672 ± 1834 unit/l | GPT level in serum ([5]; 0.03 mg/kg): 617 unit/l | GPT level in serum ([5]; 0.1 mg/kg): 540 unit/l | GPT level in serum ([5]; 0.3 mg/kg): 427 unit/l | decrease in GPT level in serum (in words) ([5]; 0.03-0.3 mg/kg): a decrease in GPT level in serum was observed
